According to patent US12486246B2, “Replication protein A (RPA)-DNA interaction inhibitors” (THE TRUSTEES OF INDIANA UNIVERSITY, priority 2019, dated 2025):

Tests used:
[1] = test system: sonicated salmon sperm DNA; assay: Fluorescent intercalator displacement (FID) assay, SYBR-Green; assay type: binding; details: 25 mM MOPS pH 6.5
Experimental: The analysis of compound interactions with DNA was determined by inhibition of SYBR-Green intercalation into DNA as we have previously described. Briefly, reactions were performed in 25 mM MOPS (pH 6.5) containing sonicated salmon sperm DNA (8.29 ng/μL), SYBR-Green, and the indicated concentrations of RPA inhibitors. Reactions were conducted in black 96-well plates. Doxorubicin, a known noncovalent DNA binding chemotherapeutic, was used as a positive control. Fluorescence was measured using a BioTek® Synergy™ H1 hybrid multi-mode microplate reader with an excitation wavelength of 485 nm, emission wavelength of 528 nm, and a read height of 7 mm. Data were collected using BioTek® Gen5™ reader software. Reactions were incubated a maximum of 5 min before measurements were collected.
In order to probe the potential role of DNA intercalation as a mechanism for RPA inhibition, compounds 19, 23, 26, 27, 43 and 45 were analyzed using FID assay along with doxorubicin (Dox) as a positive control. […] In addition, direct binding of 9 derivatives to the target protein was assessed using a differential scan fluorimetry (DSF) assay. This assay assesses the melting profile of a protein at increasing temperatures via fluorescent dye binding. The direct interaction of a small molecule to the target protein can either increase or decrease the melting temperature (Tm) of the target depending on the specific protein and their interactions. […] Heparin sulfate, a known RPA interacting molecule often used in the purification of the protein was used as a control. […] (data not shown). […] (FIG. 1B).

[2] = target: T1, full length heterotrimeric human RPA (Homo sapiens, UniProt P27694); assay: Electrophoretic mobility shift assay (EMSA), binding of full length human RPA to ssDNA; details: for IC50: full length human RPA binding to DNA, mean ± SD of minimum triplicate experiments
T1 construct: Full length, heterotrimeric human RPA (fl-RPA) and DBD-A/B constructs were expressed and purified; made in house
Experimental: Full length, heterotrimeric human RPA (fl-RPA) and DBD-A/B constructs were expressed and purified according to previously described protocol. The DBD-A/B construct was expressed as a His6-RPA181-422 fusion protein. E. coli BL21 (DE3) cells in log growth were induced for 3 h with 0.5 mM IPTG at 37° C. The cells were lysed via sonication in buffer containing 20 mM Tris pH 7.5, 500 mM NaCl, 10 mM b-mercaptoethanol, supplemented with 25 μg/mL lysozyme, 1 μg/mL leupeptin, 1 μg/mL pepstatin and 0.5 mM PMSF. The lysate was applied to a 20 mL phosphocellulose column equilibrated in the same buffer and the flow-through material collected, brought to 5 mM Imidazole and loaded onto a 2 ml Ni-NTA column. The column was washed and proteins eluted on with a gradient from 50 mM to 500 mM imidazole. Fractions were assessed by EMSA and SDS-PAGE and DBD-A/B containing fraction were pool, dialyzed against buffer containing 50 mM HEPES pH 7.0, 500 mM NaCl and 1 mM DTT and stored at −80° C.
EMSAs were carried out using previously described procedure with the following modification. EMSA reactions (20 μL) were performed with 50 nM fl-RPA and 2.5 nM 5′ [^32P]-labeled 34-base DNA in buffer containing 20 mM HEPES (pH 7.8), 1 mM DTT, 0.001% NP-40, 50 mM NaCl. Chemical compounds were suspended in DMSO and DMSO concentration in the reaction mixture was kept constant at 2% or below 5%. RPA was incubated with inhibitor or DMSO control in reaction buffer for 30 min before the addition of DNA. Reactions were incubated for 5 min at room temperature and products separated via 6% native polyacrylamide gel electrophoresis. The bound and unbound fractions were then quantified by phosphor-imager analysis using ImageQuant software (Molecular Dynamics, CA) and IC50 values calculated by non-linear regression using SigmPlot (Sysat). For EMSA reactions with RPA DBD-A/B, 150 nM DBD-A/B was used, and electrophoresis was performed at 4° C. All other conditions were identical to those described for the full-length RPA.
Purified full length heterotrimeric human RPA protein was used to screen a series of analogs in an electrophoretic mobility shift assay (EMSA) measuring direct binding to a ss-DNA substrate. Quantification of the EMSA data and additional concentration dependent analysis to measure IC50 values of newly synthesized analogs provided potential insight into the structure-activity relationships (Table 1 and 2). […] Fluorine and trifluoromethyl substituents were included in pyridinyl compounds 28-29.

[3] = Aqueous solubility in unbuffered water; assay type: physicochemical; details: 43, 44, 45, 46, 47 vs 9, 16, 26, 28, 29 respectively
Experimental: Aqueous solubility was determined by suspending compound in un-buffered water with stirring. Insoluble material was removed by sedimentation or filtration and soluble compound quantified by absorbance spectroscopy and LC/MS. pH dependence was determined by suspending compound in 10 mM citrate buffer at pH 4.0 or 10 mM phosphate […] as described above in the description.
The morpholine ring is commonly introduced into solvent exposed regions as a privileged solubilizing group to improve solubility or pharmacokinetic properties including metabolic stability of a prospective drug scaffold which is exemplified by many FDA approved drugs. Modifications on Ring A had less of an effect than the morpholino modifications at the alkyl carboxylic acid side chain. To determine the effect of pH on solubility, we prepared solution at 1 mM in citrate buffer at pH 4, phosphate buffer at pH 7 and carbonate buffer at pH 9.5.

T1 sequence (P27694 whole entry): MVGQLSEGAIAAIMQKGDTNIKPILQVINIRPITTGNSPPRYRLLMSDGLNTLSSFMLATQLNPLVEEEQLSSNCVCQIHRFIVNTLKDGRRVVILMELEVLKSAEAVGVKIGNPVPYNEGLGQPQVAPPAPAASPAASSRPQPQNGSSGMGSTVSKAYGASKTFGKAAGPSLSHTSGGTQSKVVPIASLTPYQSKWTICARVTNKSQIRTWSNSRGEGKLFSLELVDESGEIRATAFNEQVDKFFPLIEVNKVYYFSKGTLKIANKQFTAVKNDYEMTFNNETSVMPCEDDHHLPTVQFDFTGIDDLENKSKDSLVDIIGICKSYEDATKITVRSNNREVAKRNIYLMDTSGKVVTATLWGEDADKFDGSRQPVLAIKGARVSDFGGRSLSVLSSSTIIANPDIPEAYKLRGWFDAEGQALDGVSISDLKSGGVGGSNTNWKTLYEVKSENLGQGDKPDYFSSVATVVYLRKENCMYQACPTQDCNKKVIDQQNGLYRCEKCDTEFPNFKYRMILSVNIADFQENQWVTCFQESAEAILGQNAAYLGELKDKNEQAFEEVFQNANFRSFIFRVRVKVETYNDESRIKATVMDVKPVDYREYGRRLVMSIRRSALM
T1 sequence (P15927 whole entry partner): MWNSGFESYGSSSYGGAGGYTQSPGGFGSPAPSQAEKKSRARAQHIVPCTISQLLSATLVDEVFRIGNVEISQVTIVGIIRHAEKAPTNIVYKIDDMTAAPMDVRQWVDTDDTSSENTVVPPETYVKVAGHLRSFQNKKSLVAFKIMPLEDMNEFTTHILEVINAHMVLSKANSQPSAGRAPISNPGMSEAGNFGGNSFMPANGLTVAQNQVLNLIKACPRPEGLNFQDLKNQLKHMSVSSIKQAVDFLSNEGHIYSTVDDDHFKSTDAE
T1 sequence (P35244 whole entry partner): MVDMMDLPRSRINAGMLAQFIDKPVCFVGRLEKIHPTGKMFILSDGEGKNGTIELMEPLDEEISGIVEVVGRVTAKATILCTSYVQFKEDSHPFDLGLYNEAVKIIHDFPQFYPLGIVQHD

SMILES	IC50 [2]	also measured
COc1cccc2c1C(=O)c1c(O)c3c(c(O)c1C2=O)C[C@@](O)(C(=O)CO)C[C@@H]3O[C@H]1C[C@H](N)[C@H](O)[C@H](C)O1 [doxorubicin, reference compound]		DNA binding activity (displacement of SYBR-Green intercalator) [1]: concentration dependent reduction in fluorescence
CCOc1ccc2cc(C3CC(c4ccc(O)cc4)=NN3C(=O)CCCC(=O)O)c(Cl)nc2c1 (stereo not shown) [Compound 17, 5-(5-(2-Chloro-7-ethoxyquinolin-3-yl)-3-(4-hydroxyphenyl)-4,5-dihydro-1H-pyrazol-1-yl)-5-oxopentanoic acid]	> 25 µM	
CCOc1ccc2cc(C3CC(c4ccc(-c5ccoc5)cc4)=NN3C(=O)CCCC(=O)O)c(Cl)nc2c1 (stereo not shown) [Compound 22, 5-(5-(2-chloro-7-ethoxyquinolin-3-yl)-3-(4-(furan-3-yl)phenyl)-4,5-dihydro-1H-pyrazol-1-yl)-5-oxopentanoic acid]	6.77 ± 0.64 µM	
C=CC(=O)Oc1ccc(C2=NN(C(=O)CCCC(=O)O)C(c3cc4ccc(OCC)cc4nc3Cl)C2)cc1 (stereo not shown) [Compound 20, 5-(3-(4-(Acryloyloxy)phenyl)-5-(2-chloro-7-ethoxyquinolin-3-yl)-4,5-dihydro-1H-pyrazol-1-yl)-5-oxopentanoic acid]	8.98 ± 0.98 µM	fold increase in potency/activity compared to compound 9 ([2]; full length RPA): 2 fold
CCOc1ccc2cc(C3CC(c4ccc(-c5ccc(C(F)(F)F)nc5)cc4)=NN3C(=O)CCCC(=O)NCCCN3CCOCC3)c(Cl)nc2c1 (stereo not shown) [Compound 47, 5-(5-(2-Chloro-7-ethoxyquinolin-3-yl)-3-(4-(6-(trifluoromethyl)pyridin-3-yl)phenyl)-4,5-dihydro-1H-pyrazol-1-yl)-N-(3-morpholinopropyl)-5-oxopentanamide]	5.85 ± 0.39 µM	aqueous solubility compared to carboxylic acid counterpart (in words) [3]: increased solubility
CCOC(=O)CCCC(=O)N1N=C(c2ccc(I)cc2)CC1c1cc2ccc(OCC)cc2nc1Cl (stereo not shown) [Compound 30, ethyl 5-(5-(2-chloro-7-ethoxyquinolin-3-yl)-3-(4-iodophenyl)-4,5-dihydro-1H-pyrazol-1-yl)-5-oxopentanoate]	> 25 µM	RPA inhibitory activity compared to compound 9 (in words) ([2]; full length RPA): decreased RPA inhibitory activity
CCOc1ccc2cc(C3CC(c4ccc(-c5ccc(F)nc5)cc4)=NN3C(=O)CCCC(=O)O)c(Cl)nc2c1 (stereo not shown) [Compound 28, 5-(5-(2-Chloro-7-ethoxyquinolin-3-yl)-3-(4-(6-fluoropyridin-3-yl)phenyl)-4,5-dihydro-1H-pyrazol-1-yl)-5-oxopentanoic acid]	2.66 ± 0.6 µM	
CCOc1ccc2cc(C3CC(c4ccc(I)cc4)=NN3C(=O)CCCC(=O)NCCN3CCOCC3)c(Cl)nc2c1 (stereo not shown) [Compound 42, 5-(5-(2-Chloro-7-ethoxyquinolin-3-yl)-3-(4-iodophenyl)-4,5-dihydro-1H-pyrazol-1-yl)-N-(2-morpholinoethyl)-5-oxopentanamide]	10.5 ± 0.68 µM	
CCOc1ccc2cc(C3CC(c4ccc(I)cc4)=NN3C(=O)CCCC(=O)N3CCOCC3)c(Cl)nc2c1 (stereo not shown) [Compound 41, 1-(5-(2-Chloro-7-ethoxyquinolin-3-yl)-3-(4-iodophenyl)-4,5-dihydro-1H-pyrazol-1-yl)-5-morpholinopentane-1,5-dione]	6.63 ± 0.48 µM	
CCOc1ccc2cc(C3CC(c4ccc(-c5ccc(F)nc5)cc4)=NN3C(=O)CCCC(=O)NCCCN3CCOCC3)c(Cl)nc2c1 (stereo not shown) [Compound 46, 5-(5-(2-Chloro-7-ethoxyquinolin-3-yl)-3-(4-(6-fluoropyridin-3-yl)phenyl)-4,5-dihydro-1H-pyrazol-1-yl)-N-(3-morpholinopropyl)-5-oxopentanamide]	2.29 ± 0.31 µM	aqueous solubility compared to carboxylic acid counterpart (in words) [3]: increased solubility
CCOc1ccc2cc(C3CC(c4ccc(-c5ccc(C(F)(F)F)nc5)cc4)=NN3C(=O)CCCC(=O)O)c(Cl)nc2c1 (stereo not shown) [Compound 29, 5-(5-(2-Chloro-7-ethoxyquinolin-3-yl)-3-(4-(6-(trifluoromethyl)pyridin-3-yl)phenyl)-4,5-dihydro-1H-pyrazol-1-yl)-5-oxopentanoic acid]	4.35 ± 0.42 µM	
CCOc1ccc2cc(C3CC(c4ccc(I)cc4)=NN3c3cccc(C(=O)O)c3)c(Cl)nc2c1 (stereo not shown) [Compound 39, 3-(5-(2-Chloro-7-ethoxyquinolin-3-yl)-3-(4-iodophenyl)-4,5-dihydro-1H-pyrazol-1-yl)benzoic acid]	> 25 µM	
CCOc1ccc2cc(C3CC(c4ccc(I)cc4)=NN3c3ccc(C(=O)O)cc3)c(Cl)nc2c1 (stereo not shown) [Compound 40, 4-(5-(2-Chloro-7-ethoxyquinolin-3-yl)-3-(4-iodophenyl)-4,5-dihydro-1H-pyrazol-1-yl)benzoic acid]	> 25 µM	
CCOc1ccc2cc(C3CC(c4ccc(OC(=O)N5CCOCC5)cc4)=NN3C(=O)CCCC(=O)O)c(Cl)nc2c1 (stereo not shown) [Compound 21, 5-(5-(2-Chloro-7-ethoxyquinolin-3-yl)-3-(4-((morpholine-4-carbonyl)oxy)phenyl)-4,5-dihydro-1H-pyrazol-1-yl)-5-oxopentanoic acid]	> 25 µM	RPA inhibitory activity compared to compound 9 (in words) ([2]; full length RPA): decreased RPA inhibition
CCOc1ccc2cc(C3CC(c4ccc(I)cc4)=NN3C(=O)CCCCCC(=O)O)c(Cl)nc2c1 (stereo not shown) [Compound 38, 7-(5-(2-Chloro-7-ethoxyquinolin-3-yl)-3-(4-iodophenyl)-4,5-dihydro-1H-pyrazol-1-yl)-7-oxoheptanoic acid]	9.93 ± 1.23 µM	
CCOc1ccc2cc(C3CC(c4ccc(I)cc4)=NN3C(=O)CCCCC(=O)O)c(Cl)nc2c1 (stereo not shown) [Compound 37, 6-(5-(2-Chloro-7-ethoxyquinolin-3-yl)-3-(4-iodophenyl)-4,5-dihydro-1H-pyrazol-1-yl)-6-oxohexanoic acid]	6.86 ± 0.23 µM	
CCOc1ccc2cc(C3CC(c4ccc(N)cc4)=NN3C(=O)CCCC(=O)O)c(Cl)nc2c1 (stereo not shown) [Compound 19, 5-(3-(4-Aminophenyl)-5-(2-chloro-7-ethoxyquinolin-3-yl)-4,5-dihydro-1H-pyrazol-1-yl)-5-oxopentanoic acid]	2.34 ± 0.22 µM	DNA binding activity (displacement of SYBR-Green intercalator) [1]: No significant DNA binding activity
CCOc1ccc2cc(C3CC(c4ccc([N+](=O)[O-])cc4)=NN3C(=O)CCCC(=O)O)c(Cl)nc2c1 (stereo not shown) [Compound 18, 5-(5-(2-Chloro-7-ethoxyquinolin-3-yl)-3-(4-nitrophenyl)-4,5-dihydro-1H-pyrazol-1-yl)-5-oxopentanoic acid]	> 25 µM	
CCOc1ccc2cc(C3CC(c4ccc(Br)cc4)=NN3C(=O)CCCC(=O)O)c(Cl)nc2c1 (stereo not shown) [Compound 16, 5-(3-(4-Bromophenyl)-5-(2-chloro-7-ethoxyquinolin-3-yl)-4,5-dihydro-1H-pyrazol-1-yl)-5-oxopentanoic acid]	19.2 ± 4.17 µM	
